Measurements reported in US20250109140A1, “5-[5-(PIPERIDIN-4-YL)THIENO[3,2-C]PYRAZOL-2-YL]INDAZOLE DERIVATIVES AND RELATED COMPOUNDS AS MODULATORS FOR SPLICING NUCLEIC ACIDS AND FOR THE TREATMENT OF PROLIFERATIVE DISEASES” (REMIX THERAPUTICS INC., priority 2022, published 2025).
Counter-ions that a name gives are not always drawn. Like-named read-outs stand apart in the source and are kept apart here.

Tests used:
Format in all cases: cell-based
HTT mRNA = experiment: Splicing RT-qPCR assay, HTT canonical (CJ) and alternative (AJ) junction mRNA; conditions: Homo sapiens; for EC50: AC50 = 50% response in AJ mRNA increase
Protocol: (§1) Compounds described herein were used to modulate RNA transcript abundance in cells. The expression of a target mRNA was measured by detecting the formation of an exon-exon junction in the canonical transcript (CJ). A compound mediated exon-inclusion event was detected by observing an increase in formation of a new junction with an alternative exon (AJ). Real-time qPCR assays were used to detect these splicing switches and interrogate the potency of various compounds towards different target genes. A high-throughput real time quantitative PCR (RT-qPCR) assay was developed to measure these two isoforms of the mRNA (CJ and AJ) for exemplary genes, such as HTT, SMN2, and MYB, together with a control housekeeping gene, GAPDH or GUSB or PPIA, used for normalization. Briefly, the A673 or K562 cell line was treated with various compounds described herein (e.g., compounds of Formula (I)). After treatment, the levels of the HTT, MYB, or SMN2 mRNA targets were determined from each sample of cell lysate by cDNA synthesis followed by qPCR.
(§2) The A673 cell line was cultured in DMEM with 10% FBS. Cells were diluted with full growth media and plated in a 96-well plate (15,000 cells in 100 ul media per well). The plate was incubated at 37° C. with 5% CO2 for 24 hours to allow cells to adhere. An 11-point 3-fold serial dilution of the compounds was made in DMSO then diluted in media in an intermediate plate. Compounds were transferred from the intermediate plate to the cell plate with the top dose at a final concentration of 10 uM in the well. Final DMSO concentration was kept at or below 0.25%. The cell plate was returned to the incubator at 37° C. with 5% CO2 for an additional 24 hours.
(§3) The K562 cell line was cultured in IMDM with 10% FBS. For K562, cells were diluted with full growth media and plated in either a 96-well plate (50,000 cells in 50 uL media per well) or a 384-well plate (8,000-40,000 cells in 45 uL media per well). An 11-point 3-fold serial dilution of the compounds were made in DMSO then diluted in media in an intermediate plate. Compound was transferred from the intermediate plate to the cell plate with the top dose at a final concentration of 10 uM in the well. Final DMSO concentration was kept at or below 0.25%. Final volume was 100 uL for 96-well plate and 50 uL for 384-well plate. The cell plate was then placed in an incubator at 37° C. with 5% CO2 for 24 hours.
(§4) The cells were then gently washed with 50 uL-100 uL cold PBS before proceeding to addition of lysis buffer. 30 uL-50 uL of room temperature lysis buffer with DNAse I (and optionally RNAsin) was added to each well. Cells were shaken/mixed thoroughly at room temperature for 5-10 minutes for lysis to take place and then 3 uL-5 uL of room temperature stop solution was added and wells were shaken/mixed again. After 2-5 minutes, the cell lysate plate was transferred to ice for RT-qPCR reaction setup. The lysates could also be frozen at-80° C. for later use.
(§5) In some cases, a direct lysis buffer was used. An appropriate volume of 3× lysis buffer (10 mM Tris, 150 mM NaCl, 1.5%-2.5% Igepal and 0.1-1 U/uL RNAsin, pH 7.4) was directly added to either K562 or A673 cells in media and mixed by pipetting 3 times. The plates were then incubated at room temperature with shaking/rocking for 20-50 minutes to allow for lysis to take place. After this time, the cell lysate plate was transferred to ice to set up for the RT-qPCR reactions. The lysates could also be frozen at −80° C. for later use.
(§6) To set up 10 uL RT-qPCR reactions, cell lysates were transferred to 384-well qPCR plates containing the master mix according to the table below. The plates were sealed, gently vortexed, and spun down before the run. The volumes were adjusted accordingly in some instances where the reaction was carried in 20 μL. The table below summarizes the components of the RT-qPCR reactions:
(§7) The RT-qPCR reaction was performed using a QuantStudio (ThermoFisher) under the following fast cycling conditions. […]

MYB mRNA = experiment: Splicing RT-qPCR assay, MYB canonical (CJ) and alternative (AJ) junction mRNA; conditions: Homo sapiens; for EC50: AC50 = 50% response in AJ mRNA increase
Protocol: as §1, §2, §3, §4, §5, §6, §7

SMN2 mRNA = experiment: Splicing RT-qPCR gene panel, SMN2 canonical junction (CJ) mRNA; conditions: Homo sapiens; Table 8; larger gene panel, decrease in CJ mRNA levels
Protocol: as §1, §2, §3, §4, §5, §6, §7

Target C mRNA = experiment: Splicing RT-qPCR gene panel, Target C canonical junction (CJ) mRNA; conditions: Homo sapiens; Table 8; larger gene panel, decrease in CJ mRNA levels
Protocol: as §1, §2, §3, §4, §5, §6, §7

[1] = Table 7, RT-qPCR, A673 or K562 cells, 24 hours treatment
[2] = Table 7, IC50 = 50% response in CJ mRNA decrease, RT-qPCR, A673 or K562 cells, 24 hours treatment, read-out: HTT CJ
[3] = Table 8, larger gene panel, decrease in CJ mRNA levels, read-out: HTT CJ IC50
[4] = Table 7, IC50 = 50% response in CJ mRNA decrease, RT-qPCR, A673 or K562 cells, 24 hours treatment, read-out: MYB CJ
[5] = Table 8, larger gene panel, decrease in CJ mRNA levels, read-out: MYB CJ IC50

| SMILES | EC50 (HTT mRNA; [1]) [nM] | IC50 (HTT mRNA; [2]) [nM] | IC50 (HTT mRNA; [3]) [nM] | EC50 (MYB mRNA; [1]) [nM] | IC50 (MYB mRNA; [4]) [nM] | IC50 (MYB mRNA; [5]) [nM] | IC50 (SMN2 mRNA) [nM] | IC50 (Target C mRNA) [nM] |
| --- | --- | --- | --- | --- | --- | --- | --- | --- |
| CN1CCC(c2cc3sc(-c4cc(F)c5nn(C)cc5c4)nc3s2)CC1 [Compound 151, 7-fluoro-2-methyl-5-[5-(1-methylpiperidin-4-yl)thieno[2,3-d][1,3]thiazol-2-yl]indazole] | < 100 | < 100 | < 100 | 1000 to 10000 | 100 to 1000 | 1000 to 10000 | < 100 | 100 to 1000 |
| CN1CCC(N(C)c2cc3sc(-c4cc(F)c5nn(C)cc5c4)nc3s2)CC1 [Compound 145, N-[2-(7-fluoro-2-methylindazol-5-yl)thieno[2,3-d][1,3]thiazol-5-yl]-N,1-dimethylpiperidin-4-amine] | > 10000 | > 10000 | > 10000 | 1000 to 10000 | 1000 to 10000 | 1000 to 10000 | 100 to 1000 | > 10000 |
| Cn1cc2cc(N3Cc4cc(C5CCNCC5)sc4C3=O)cc(F)c2n1 [Compound 1118, 5-(7-fluoro-2-methylindazol-5-yl)-2-(piperidin-4-yl)-4H-thieno[2,3-c]pyrrol-6-one] | 100 to 1000 | 100 to 1000 | 100 to 1000 | 1000 to 10000 | 1000 to 10000 | 1000 to 10000 | < 100 | 1000 to 10000 |
| Cn1cc2cc(-c3nc4sc(N5CCC56CCCNC6)cc4s3)cc(F)c2n1 (stereo not shown) [Compound 202, 1-[2-(7-fluoro-2-methylindazol-5-yl)thieno[2,3-d][1,3]thiazol-5-yl]-1,6-diazaspiro[3.5]nonane] | > 10000 | > 10000 | > 10000 | > 10000 | > 10000 | > 10000 | 1000 to 10000 | 1000 to 10000 |
| C[C@@H]1C[C@@H](c2cc3sc(-c4cc(F)c5nn(C)cc5c4)nc3s2)CCN1 (single isomer, unassigned) [Compound 193, 7-fluoro-2-methyl-5-[5-(2-methylpiperidin-4-yl)thieno[2,3-d][1,3]thiazol-2-yl]indazole] | < 100 | < 100 | < 100 | < 100 | < 100 | < 100 | < 100 | < 100 |
| Cn1cc2cc(-c3cc4sc(C5CCNCC5)nc4s3)cc(F)c2n1 [Compound 124, 7-fluoro-2-methyl-5-[2-(piperidin-4-yl)thieno[2,3-d][1,3]thiazol-5-yl]indazole] | < 100 | 100 to 1000 | < 100 | 100 to 1000 | 100 to 1000 | 100 to 1000 | < 100 | 100 to 1000 |
| Cc1cc(-c2nc3sc(C4CCNCC4)cc3s2)cc2cn(C)nc12 [Compound 238, 2,7-dimethyl-5-[5-(piperidin-4-yl)thieno[2,3-d][1,3]thiazol-2-yl]indazole] | < 100 | < 100 | < 100 | 100 to 1000 | 100 to 1000 | 100 to 1000 | < 100 | 100 to 1000 |
| CN(c1cc2sc(-c3ccc(-c4cn[nH]c4)cc3O)nc2s1)[C@@H]1C[C@H]2CC[C@@H](C1)N2 [Compound 191, 2-{5-[(1R,3R,5S)-8-azabicyclo[3.2.1]octan-3-yl(methyl)amino]thieno[2,3-d][1,3]-thiazol-2-yl}-5-(1H-pyrazol-4-yl)phenol] | > 10000 | > 10000 | > 10000 | > 10000 | > 10000 | > 10000 | > 10000 | > 10000 |
| Cn1cc2cc(-c3nc4sc(N5CCNC6(CC6)C5)cc4s3)cc(F)c2n1 [Compound 136, 5-(5-[4,7-diazaspiro[2.5]octan-7-yl]thieno[2,3-d][1,3]thiazol-2-yl)-7-fluoro-2-methylindazole] | > 10000 | > 10000 | > 10000 | 100 to 1000 | 1000 to 10000 | 100 to 1000 | 100 to 1000 | > 10000 |
| Cc1cn2nc(-c3nc4sc(C5CCOCC5)cc4s3)cc(C)c2n1 [Compound 196, 2,8-dimethyl-6-[5-(oxan-4-yl)thieno[2,3-d][1,3]thiazol-2-yl]imidazo[1,2-b]pyridazine] | 1000 to 10000 | 1000 to 10000 | 1000 to 10000 | 1000 to 10000 | 1000 to 10000 | 1000 to 10000 | 1000 to 10000 | 1000 to 10000 |
| CN1CC2(C1)CN(c1cc3sc(-c4cc(F)c5nn(C)cc5c4)nc3s1)C2 [Compound 146, 7-fluoro-2-methyl-5-(5-[6-methyl-2,6-diazaspiro[3.3]heptan-2-yl]thieno[2,3-d][1,3]thiazol-2-yl)indazole] | – | – | 100 to 1000 | – | – | 100 to 1000 | < 100 | 100 to 1000 |
| Cn1cc2ccc(-c3nc4sc(C5CCNCC5)cc4s3)cc2n1 [Compound 127, 2-methyl-6-[5-(piperidin-4-yl)thieno [2,3-d][1,3]thiazol-2-yl]indazole hydrochloride] | 1000 to 10000 | 1000 to 10000 | 1000 to 10000 | 1000 to 10000 | 1000 to 10000 | 1000 to 10000 | 1000 to 10000 | 1000 to 10000 |
| Cn1cc2cc(N3Cc4sc(C5CCNCC5)cc4C3=O)ncc2n1 [Compound 1125] | 1000 to 10000 | 1000 to 10000 | 1000 to 10000 | 1000 to 10000 | 1000 to 10000 | 1000 to 10000 | 100 to 1000 | 1000 to 10000 |
